The numbers were not newly measured in patent US20130143897A1, “ORAL CONTROLLED RELEASE PHARMACEUTICAL COMPOSITIONS OF BLONANSERIN” (LUPIN LIMITED, priority 2010, published 2013), which cites them from elsewhere.

Molecules are shown by their SMILES.

For one data set, the target named is dopamine (D2) receptors (Homo sapiens, UniProt P14416).
Another data set has as its target serotonin (S2) receptors (Homo sapiens, UniProt P28223).

serotonin (S2) receptors, sequence (P28223 whole entry): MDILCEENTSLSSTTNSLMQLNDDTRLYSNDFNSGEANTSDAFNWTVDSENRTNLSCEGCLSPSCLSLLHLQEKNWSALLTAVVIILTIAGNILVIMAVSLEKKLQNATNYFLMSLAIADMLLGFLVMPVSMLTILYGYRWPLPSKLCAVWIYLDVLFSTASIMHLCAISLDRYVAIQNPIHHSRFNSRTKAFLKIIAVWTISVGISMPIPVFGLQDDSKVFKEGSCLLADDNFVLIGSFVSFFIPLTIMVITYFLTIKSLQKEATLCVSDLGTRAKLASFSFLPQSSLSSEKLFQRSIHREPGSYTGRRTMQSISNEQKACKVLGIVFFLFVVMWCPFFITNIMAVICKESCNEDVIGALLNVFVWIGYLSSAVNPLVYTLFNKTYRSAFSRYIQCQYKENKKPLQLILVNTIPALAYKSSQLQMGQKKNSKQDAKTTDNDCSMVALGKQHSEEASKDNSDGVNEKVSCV
dopamine (D2) receptors, sequence (P14416 whole entry): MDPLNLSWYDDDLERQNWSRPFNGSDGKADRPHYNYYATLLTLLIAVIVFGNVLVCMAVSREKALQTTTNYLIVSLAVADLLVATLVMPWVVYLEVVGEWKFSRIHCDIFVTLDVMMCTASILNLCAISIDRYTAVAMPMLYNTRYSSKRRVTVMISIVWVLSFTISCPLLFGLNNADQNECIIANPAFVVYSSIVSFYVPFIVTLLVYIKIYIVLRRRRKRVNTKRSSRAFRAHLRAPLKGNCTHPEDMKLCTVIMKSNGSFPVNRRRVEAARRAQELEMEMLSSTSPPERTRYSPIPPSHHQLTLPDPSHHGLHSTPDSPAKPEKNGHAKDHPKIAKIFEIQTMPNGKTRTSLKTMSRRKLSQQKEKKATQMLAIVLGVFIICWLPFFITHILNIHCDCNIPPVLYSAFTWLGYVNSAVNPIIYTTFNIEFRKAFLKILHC

In the case of `CCN1CCN(c2cc(-c3ccc(F)cc3)c3c(n2)CCCCCC3)CC1` [Blonanserin, 2-(4-Ethyl-1-piperazinyl)-4-(4-fluorophenyl)-5,6,7,8,9,10-hexahydrocycloocta[b]pyridine], the solubility in water entry is recorded as “poor”. Besides, the “binding property to dopamine (D2) receptors” value at dopamine (D2) receptors is “potent”. Besides, on serotonin (S2) receptors, the “binding property to serotonin (S2) receptors” value is on record as “potent”.
